# Assay results: PubChem BioAssay AID463099 (The Scripps Research Institute Molecular Screening Center, 2010)
# Test system: IMP-1-expressing E. coli growth, with imipenem, MIC
# Assay: growth inhibition of IMP-1-expressing E. coli, late-stage follow-up, counter-screen for IMP-1/VIM-2 inhibitor project, imipenem co-treatment, MIC (AID 463099)
row,Compound,MIC [µM]
1,CC(=O)Nc1cc[c]([Hg+])cc1,2.5
2,[Hg+][c]1ccccc1,0.63
3,COc1cccc[c]1[Hg+],1.09
4,O=C(O)c1ccc[c]([Hg+])c1,3.75
5,Cc1cc[c]([Hg+])cc1,0.94
6,O=C(O)c1cc[c]([Hg][Cl])cc1,9.38
